Reference: patent US6492137B1, “Response element compositions and assays employing same” (The Salk Institute for Biological Studies, priority 1989, dated 2002)

Molecular target: T1, RARα (Homo sapiens, UniProt P10276)
T1 sequence (P10276 1-462): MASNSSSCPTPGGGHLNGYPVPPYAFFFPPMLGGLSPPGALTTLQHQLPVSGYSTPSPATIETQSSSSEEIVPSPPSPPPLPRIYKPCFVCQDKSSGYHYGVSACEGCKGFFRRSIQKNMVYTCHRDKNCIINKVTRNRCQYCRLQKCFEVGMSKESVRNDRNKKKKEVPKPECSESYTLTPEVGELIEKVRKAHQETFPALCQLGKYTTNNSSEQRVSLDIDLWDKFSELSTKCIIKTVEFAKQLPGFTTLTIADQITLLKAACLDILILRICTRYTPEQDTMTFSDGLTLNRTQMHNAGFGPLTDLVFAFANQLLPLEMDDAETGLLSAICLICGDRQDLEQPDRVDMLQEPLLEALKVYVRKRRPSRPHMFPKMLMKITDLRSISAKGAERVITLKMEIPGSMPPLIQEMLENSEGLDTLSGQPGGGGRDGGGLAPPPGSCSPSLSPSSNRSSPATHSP
Test: Gel retardation DNA-binding assay with RARα-expressing COS cell extracts
Design: expressed in transfected cells; host or cells: COS cells (whole-cell extract)
Conditions: unlabeled competitor oligonucleotide; COS cell extracts
Protocol: For DNA binding assays, COS cells were cultured in DMEM with 10% calf bovine serum and transfected by the calcium phosphate method with 20 μg of the pCMX receptor expression plasmid for 6 hours followed by a glycerol shock. After incubating the transfected COS cells for another 48 hours, the cells were harvested to prepare extracts for the DNA binding assay, carried out as described by Damm et al., Nature 339: 593-597 (1989). The extracts were made in 20 mM HEPES (pH 7.4), 0.4 M KCl, 2 mM DTT and 20% glycerol. A similar method was employed to prepare a whole cell extract from F9 stem cells. For the binding, 5 μg (COS) or 10 μg (F9) of proteins was incubated on ice for 20 minutes, first in 20 mM HEPES, 80 mM KCl, 1 mM DTT, 0.1% NP40, 2.5 μg of poly dI/dC, and 10% glycerol (cold competitor oligonucleotides, when included, were added during this pre-incubation period). Then 40 fmole of ^32P-labeled oligonucleotide probe (1-2×10^5 cpm, prepared by filling-in reaction using Klenow polymerase in the presence of α-^32P-dCTP) was added to the reaction mixture, followed by incubation at room temperature for 30 minutes. The receptor-DNA complexes were resolved by electrophoresis through 5% polyacrylamide gel containing 5% glycerol at 6 V/cm at room temperature.
Oligonucleotides listed in FIG. 3 were used as a probe to test specific DNA-binding of the RARα and TRβ in a gel retardation assay. On the βRARE, a faint background binding activity was detected in the mock transfected COS cell extract. […] In each case the result obtained from in vivo transactivation and in vitro DNA binding are consistent.
Using the mobility shift assay, the DNA-binding capacity of extracts from COS cells expressing TRβ and RARα to these sequences was also tested. […] This pattern is consistent with that of the in vivo activation (FIG. 4). A reciprocal pattern was obtained when the same oligonucleotides were used to compete RARα binding to the ^32P-labeled βRARE. […] This provides a striking example of the role of half-site spacing in generating a functional response element.

Row | Substance | competition for RARα binding to 32P-labeled βRARE
1 | MHC-N: 23-nucleotide core of the wild-type sequence (MHC-TRE) (SEQ ID NO:14) (AGCTGGAGGTGACAGGAGGACAGCAAGCT; DNA, backbone not given here; further chemistry not fully specified) | fails to compete at all
2 | TREp: optimized palindromic rat growth hormone TRE (SEQ ID NO:10) (AGCTTCAGGTCATGACCTGAGAGCT; DNA, backbone not given here; double-stranded response element with agct overhangs, cloned into reporter plasmid) [reference compound] | effective competitors
